Data taken from patent US20230304018A1, “COMPOSITIONS AND METHODS FOR ENHANCING WEIGHT LOSS” (The Children's Hospital of Philadelphia, priority 2017, published 2023).
Structures can show the parent of a compound that is named as a salt.

Assays:
[1] = molecular target: T1, JAK3 (Homo sapiens, UniProt P52333); details: cited from earlier work
T1 sequence (P52333 1-1124): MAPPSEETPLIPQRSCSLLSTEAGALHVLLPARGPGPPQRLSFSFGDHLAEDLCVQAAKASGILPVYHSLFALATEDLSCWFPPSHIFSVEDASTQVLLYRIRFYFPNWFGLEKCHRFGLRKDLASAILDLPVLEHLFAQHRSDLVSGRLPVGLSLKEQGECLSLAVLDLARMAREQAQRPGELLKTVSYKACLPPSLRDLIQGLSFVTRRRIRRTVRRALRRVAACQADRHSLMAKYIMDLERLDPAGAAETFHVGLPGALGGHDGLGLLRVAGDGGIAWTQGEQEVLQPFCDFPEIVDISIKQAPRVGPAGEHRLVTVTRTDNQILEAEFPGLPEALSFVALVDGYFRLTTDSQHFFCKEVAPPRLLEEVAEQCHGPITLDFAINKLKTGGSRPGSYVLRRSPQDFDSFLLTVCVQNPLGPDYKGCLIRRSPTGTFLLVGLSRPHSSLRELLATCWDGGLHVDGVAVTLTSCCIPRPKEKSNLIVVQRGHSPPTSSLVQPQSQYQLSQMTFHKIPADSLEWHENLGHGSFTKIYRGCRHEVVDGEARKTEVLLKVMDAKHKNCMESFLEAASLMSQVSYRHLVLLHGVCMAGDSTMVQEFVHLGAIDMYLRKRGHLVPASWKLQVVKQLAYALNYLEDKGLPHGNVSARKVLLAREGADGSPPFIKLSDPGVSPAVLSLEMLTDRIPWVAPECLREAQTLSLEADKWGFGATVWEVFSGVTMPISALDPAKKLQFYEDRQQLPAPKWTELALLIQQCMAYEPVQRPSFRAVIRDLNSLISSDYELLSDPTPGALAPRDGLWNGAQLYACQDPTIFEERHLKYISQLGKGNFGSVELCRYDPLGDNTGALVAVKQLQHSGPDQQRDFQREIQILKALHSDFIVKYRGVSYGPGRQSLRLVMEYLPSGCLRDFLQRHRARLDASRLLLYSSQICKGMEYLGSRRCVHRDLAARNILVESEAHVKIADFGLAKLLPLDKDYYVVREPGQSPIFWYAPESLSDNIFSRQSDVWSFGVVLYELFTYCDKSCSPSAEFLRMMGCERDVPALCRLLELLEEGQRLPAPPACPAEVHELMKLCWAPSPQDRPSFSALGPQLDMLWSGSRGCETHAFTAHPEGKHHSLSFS

[2] = molecular target: TYK2 (Homo sapiens, UniProt P29597); details: cited from earlier work
Chain of TYK2 (P29597 whole entry): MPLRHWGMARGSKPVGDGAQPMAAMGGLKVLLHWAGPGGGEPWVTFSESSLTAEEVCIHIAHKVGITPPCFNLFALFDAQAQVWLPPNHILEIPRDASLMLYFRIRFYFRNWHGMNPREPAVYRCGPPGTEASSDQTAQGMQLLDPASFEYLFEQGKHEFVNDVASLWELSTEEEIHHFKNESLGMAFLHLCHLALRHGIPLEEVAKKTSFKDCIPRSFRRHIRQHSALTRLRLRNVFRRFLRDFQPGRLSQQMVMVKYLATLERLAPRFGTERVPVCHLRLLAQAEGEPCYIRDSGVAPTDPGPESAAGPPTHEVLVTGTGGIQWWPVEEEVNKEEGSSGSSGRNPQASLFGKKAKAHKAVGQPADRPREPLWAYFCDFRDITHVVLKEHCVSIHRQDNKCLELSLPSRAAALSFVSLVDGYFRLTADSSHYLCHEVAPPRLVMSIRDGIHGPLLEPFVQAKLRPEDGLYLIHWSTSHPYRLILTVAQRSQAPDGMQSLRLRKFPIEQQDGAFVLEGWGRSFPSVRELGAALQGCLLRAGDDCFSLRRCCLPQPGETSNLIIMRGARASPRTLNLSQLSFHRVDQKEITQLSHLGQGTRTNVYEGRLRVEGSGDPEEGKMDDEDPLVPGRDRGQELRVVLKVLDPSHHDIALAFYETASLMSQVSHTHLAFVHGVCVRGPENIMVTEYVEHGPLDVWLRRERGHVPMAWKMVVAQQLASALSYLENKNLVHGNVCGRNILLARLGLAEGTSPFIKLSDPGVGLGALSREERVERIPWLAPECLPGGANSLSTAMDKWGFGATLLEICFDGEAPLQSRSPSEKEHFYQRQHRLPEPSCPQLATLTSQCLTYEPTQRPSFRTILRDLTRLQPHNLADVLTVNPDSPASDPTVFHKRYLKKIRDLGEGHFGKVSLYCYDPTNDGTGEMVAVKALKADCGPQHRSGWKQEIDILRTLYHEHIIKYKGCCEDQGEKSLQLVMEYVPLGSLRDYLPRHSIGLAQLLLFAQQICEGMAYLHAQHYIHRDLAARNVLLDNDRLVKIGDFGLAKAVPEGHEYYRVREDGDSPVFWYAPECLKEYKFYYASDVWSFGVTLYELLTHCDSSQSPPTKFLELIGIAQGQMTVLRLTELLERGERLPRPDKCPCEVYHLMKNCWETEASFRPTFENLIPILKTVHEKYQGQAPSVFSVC

[3] = molecular target: JAK1 (Homo sapiens, UniProt P23458); details: cited from earlier work
Chain of JAK1 (P23458 whole entry, species assumed): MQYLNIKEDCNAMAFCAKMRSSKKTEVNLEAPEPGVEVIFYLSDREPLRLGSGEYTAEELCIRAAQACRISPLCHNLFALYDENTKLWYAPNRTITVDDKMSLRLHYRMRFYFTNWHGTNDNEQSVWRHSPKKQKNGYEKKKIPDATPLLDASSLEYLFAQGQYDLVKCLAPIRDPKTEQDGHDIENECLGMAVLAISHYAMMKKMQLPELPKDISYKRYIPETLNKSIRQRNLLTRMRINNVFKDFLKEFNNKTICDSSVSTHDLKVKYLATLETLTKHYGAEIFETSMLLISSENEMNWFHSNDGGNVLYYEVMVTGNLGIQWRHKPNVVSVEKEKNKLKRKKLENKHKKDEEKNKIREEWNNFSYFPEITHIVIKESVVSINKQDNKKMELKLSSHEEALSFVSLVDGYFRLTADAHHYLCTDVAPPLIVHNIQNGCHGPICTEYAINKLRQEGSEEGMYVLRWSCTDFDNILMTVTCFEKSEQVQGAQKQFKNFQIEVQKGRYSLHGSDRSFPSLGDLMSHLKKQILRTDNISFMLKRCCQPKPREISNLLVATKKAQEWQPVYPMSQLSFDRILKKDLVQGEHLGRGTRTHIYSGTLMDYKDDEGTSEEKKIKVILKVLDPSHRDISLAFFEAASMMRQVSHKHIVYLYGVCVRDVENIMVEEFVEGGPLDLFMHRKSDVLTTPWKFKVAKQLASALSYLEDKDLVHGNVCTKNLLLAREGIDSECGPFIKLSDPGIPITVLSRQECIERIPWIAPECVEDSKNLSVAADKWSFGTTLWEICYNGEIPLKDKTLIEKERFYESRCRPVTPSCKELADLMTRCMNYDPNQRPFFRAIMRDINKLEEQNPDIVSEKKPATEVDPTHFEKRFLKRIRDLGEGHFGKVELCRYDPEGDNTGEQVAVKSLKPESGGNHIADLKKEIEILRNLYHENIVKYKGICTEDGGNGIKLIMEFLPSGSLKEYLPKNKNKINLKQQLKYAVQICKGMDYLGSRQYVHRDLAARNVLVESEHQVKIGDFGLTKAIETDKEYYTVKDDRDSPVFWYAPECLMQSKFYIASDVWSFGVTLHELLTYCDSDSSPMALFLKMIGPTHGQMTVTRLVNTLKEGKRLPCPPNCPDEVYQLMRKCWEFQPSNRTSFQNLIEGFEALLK

[4] = system: cytokines and chemokine from plasma of Clec16a KO mice; test: Plasma cytokines and chemokines, Mouse Cytokine Array panel; type: in vivo
Text: FIG. 11. […]. The representative graph is quantification of cytokines and chemokine from plasma of Control (Vehicle), KO and KO+Tofacitinib inhibitor treated mice using the Mouse Cytokine Array panel.
To gain insight in the inflammatory mechanism involved in the development, progression and pathogenesis of various autoimmune diseases, we profiled plasma from control, KO and […] KO mice for cytokines and chemokine using Mouse Cytokine Array panel.

[5] = system: PKC (Rat brain); details: cited from earlier work
[6] = molecular target: JAK2 (Homo sapiens, UniProt O60674); details: cited from earlier work
Chain of JAK2 (O60674 whole entry, species assumed): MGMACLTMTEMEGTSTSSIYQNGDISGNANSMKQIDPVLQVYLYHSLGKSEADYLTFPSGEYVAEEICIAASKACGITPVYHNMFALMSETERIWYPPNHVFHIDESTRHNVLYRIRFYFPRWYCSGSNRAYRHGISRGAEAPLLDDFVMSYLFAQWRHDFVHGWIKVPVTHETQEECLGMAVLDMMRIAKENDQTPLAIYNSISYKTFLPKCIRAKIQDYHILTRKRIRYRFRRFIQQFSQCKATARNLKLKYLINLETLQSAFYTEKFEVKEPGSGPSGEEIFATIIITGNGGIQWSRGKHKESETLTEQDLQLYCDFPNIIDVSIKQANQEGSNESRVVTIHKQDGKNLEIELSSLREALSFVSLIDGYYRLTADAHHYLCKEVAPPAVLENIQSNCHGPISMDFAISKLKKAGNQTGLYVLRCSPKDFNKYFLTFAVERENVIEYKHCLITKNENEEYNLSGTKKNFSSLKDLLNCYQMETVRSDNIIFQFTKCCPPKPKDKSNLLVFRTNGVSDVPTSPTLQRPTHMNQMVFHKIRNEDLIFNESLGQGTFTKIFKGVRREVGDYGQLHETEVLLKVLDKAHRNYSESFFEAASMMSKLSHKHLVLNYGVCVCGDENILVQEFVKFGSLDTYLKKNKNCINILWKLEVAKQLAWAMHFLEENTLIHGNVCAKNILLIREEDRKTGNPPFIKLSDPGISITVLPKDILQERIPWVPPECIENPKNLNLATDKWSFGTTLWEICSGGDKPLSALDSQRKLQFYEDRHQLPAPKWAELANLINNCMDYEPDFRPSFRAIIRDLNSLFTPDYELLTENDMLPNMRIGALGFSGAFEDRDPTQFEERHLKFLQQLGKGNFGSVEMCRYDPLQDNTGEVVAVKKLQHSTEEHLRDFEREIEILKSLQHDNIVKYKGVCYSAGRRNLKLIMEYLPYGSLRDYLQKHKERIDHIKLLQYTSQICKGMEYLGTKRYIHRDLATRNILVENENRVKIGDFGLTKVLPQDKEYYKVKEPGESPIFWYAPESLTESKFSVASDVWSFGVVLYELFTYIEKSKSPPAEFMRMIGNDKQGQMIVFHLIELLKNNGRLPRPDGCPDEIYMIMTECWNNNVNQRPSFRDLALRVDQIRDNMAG

[7] = system: UBC-Cre-Clec16a^loxP KO mice; test: Tofacitinib treatment of Clec16a KO mice: fat, weight, survival; type: in vivo
[8] = system: HSL, STATs, AMPK, mTOR, P62, LC3I/II and SOCS-1 expression; test: Immunoblot analysis on gWAT from control, KO and Tofacitinib treated mice; type: in vivo
Text: To examine the signaling mechanism underlying the rescue, we performed immunoblot analysis on gWAT isolated from control, KO and Tofacitinib treated mice. We evaluated HSL, STATs, AMPK, mTOR, P62, LC3I/II and SOCS-1 expression (FIG. 10C). […]. […]. Over-activation of mTOR indicates inhibition of autophagy/lipophagy as evident by significant accumulation of P62 in CLEC16A KO mice. […].

[9] = system: 19 other tested kinases; details: cited from earlier work
[10] = system: PI3K isoforms; details: cited from earlier work
[11] = system: STAT3; details: HEL cells; cited from earlier work
[12] = molecular target: T2, mTOR (Homo sapiens, UniProt P42345+P62942); details: cited from earlier work
T2 construct: endogenous in cells; host or cells: HT-1080 cell line
T2 sequence (Q9BVC4 whole entry): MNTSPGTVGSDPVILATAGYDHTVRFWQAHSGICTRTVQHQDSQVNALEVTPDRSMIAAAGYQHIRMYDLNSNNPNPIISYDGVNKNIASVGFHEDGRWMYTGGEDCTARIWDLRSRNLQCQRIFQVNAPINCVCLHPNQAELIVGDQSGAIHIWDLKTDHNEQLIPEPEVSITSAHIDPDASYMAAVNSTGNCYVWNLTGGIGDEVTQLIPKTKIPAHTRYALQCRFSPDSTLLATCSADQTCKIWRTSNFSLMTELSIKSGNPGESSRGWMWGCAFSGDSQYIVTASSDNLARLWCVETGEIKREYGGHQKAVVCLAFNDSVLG
T2 sequence (P62942 2-108): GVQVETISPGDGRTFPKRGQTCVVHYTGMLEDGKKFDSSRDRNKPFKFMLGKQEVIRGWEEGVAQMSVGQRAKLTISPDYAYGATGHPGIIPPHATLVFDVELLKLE

[13] = molecular target: T3, Flt3 (Homo sapiens, UniProt P36888); details: cell-free assays; cited from earlier work
T3 sequence (P36888 27-993): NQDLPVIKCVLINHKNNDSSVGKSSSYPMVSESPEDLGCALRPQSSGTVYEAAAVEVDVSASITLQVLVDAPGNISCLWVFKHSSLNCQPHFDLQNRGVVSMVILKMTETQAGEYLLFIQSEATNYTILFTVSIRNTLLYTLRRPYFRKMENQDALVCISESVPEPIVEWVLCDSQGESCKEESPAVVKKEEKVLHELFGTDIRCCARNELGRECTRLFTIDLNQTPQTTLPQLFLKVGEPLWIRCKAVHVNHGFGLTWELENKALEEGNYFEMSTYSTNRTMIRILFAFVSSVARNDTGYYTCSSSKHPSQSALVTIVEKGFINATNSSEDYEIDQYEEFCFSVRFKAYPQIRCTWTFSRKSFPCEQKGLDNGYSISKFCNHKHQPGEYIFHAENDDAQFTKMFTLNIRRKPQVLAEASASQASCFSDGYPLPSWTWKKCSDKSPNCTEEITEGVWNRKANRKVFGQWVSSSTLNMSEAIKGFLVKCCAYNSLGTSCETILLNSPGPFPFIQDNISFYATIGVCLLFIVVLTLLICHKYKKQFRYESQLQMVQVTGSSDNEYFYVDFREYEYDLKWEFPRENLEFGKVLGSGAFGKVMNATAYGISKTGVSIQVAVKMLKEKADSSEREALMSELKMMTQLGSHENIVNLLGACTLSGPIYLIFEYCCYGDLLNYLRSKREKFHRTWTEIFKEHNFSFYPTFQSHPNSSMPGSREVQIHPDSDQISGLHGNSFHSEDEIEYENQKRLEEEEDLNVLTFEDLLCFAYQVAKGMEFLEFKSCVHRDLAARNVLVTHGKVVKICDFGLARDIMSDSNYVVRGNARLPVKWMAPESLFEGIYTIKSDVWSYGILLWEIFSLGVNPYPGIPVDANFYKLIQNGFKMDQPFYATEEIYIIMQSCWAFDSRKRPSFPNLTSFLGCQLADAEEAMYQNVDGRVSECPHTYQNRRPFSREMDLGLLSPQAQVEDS

[14] = molecular target: RET (Homo sapiens, UniProt P07949); details: cell-free assays; cited from earlier work
Chain of RET (P07949 29-1114, species assumed): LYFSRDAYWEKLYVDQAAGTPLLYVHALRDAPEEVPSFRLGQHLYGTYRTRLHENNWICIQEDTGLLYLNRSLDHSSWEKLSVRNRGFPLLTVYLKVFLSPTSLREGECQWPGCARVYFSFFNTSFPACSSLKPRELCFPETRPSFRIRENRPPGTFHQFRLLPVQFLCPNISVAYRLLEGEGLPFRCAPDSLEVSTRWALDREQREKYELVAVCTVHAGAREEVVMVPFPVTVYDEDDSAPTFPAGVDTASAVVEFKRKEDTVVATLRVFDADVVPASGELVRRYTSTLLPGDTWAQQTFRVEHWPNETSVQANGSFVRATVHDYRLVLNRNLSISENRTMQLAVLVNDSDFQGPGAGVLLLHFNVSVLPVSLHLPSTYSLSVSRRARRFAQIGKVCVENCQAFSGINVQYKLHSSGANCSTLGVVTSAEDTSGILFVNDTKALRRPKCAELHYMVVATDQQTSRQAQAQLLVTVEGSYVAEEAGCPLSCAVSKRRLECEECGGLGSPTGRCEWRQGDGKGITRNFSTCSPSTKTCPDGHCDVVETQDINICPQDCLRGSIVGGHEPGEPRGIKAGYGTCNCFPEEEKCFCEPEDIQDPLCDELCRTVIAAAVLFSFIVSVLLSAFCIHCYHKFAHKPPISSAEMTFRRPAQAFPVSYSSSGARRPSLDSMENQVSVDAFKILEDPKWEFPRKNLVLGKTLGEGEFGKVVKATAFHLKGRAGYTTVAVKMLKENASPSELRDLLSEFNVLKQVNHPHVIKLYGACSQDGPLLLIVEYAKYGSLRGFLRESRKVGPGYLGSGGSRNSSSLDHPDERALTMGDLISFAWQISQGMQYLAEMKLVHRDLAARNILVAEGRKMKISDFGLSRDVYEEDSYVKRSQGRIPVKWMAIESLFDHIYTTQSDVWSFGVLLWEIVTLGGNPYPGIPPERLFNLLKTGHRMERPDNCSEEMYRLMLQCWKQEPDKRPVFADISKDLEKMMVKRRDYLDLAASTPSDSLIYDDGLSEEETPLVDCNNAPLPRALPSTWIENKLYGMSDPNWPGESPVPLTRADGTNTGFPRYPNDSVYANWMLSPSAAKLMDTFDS

[15] = system: majority of kinases; details: tested at 1 μM; cited from earlier work
[16] = system: panel of 38 non-JAK kinases; details: cited from earlier work
[17] = system: Vps34, AKT, PDK1, p70S6K, MEK, ERK, p38, or JNK; details: cited from earlier work
[18] = molecular target: mTOR (Homo sapiens, UniProt P42345); details: cited from earlier work
[19] = gWAT immunoblot, CLEC16A KO mice

CCn1c(C(=O)N(C2CC2)C2CC2)cc2c3c(ncn3C)c(Nc3cc(C)n(C)n3)nc21 [BMS-911543]
selectivity for JAK2 versus JAK3 [1]: 75 fold
selectivity for JAK2 versus TYK2 [2]: 65 fold
selectivity for JAK2 versus JAK1 [3]: ~350 fold

N#CC(=C(/N)Sc1ccccc1N)/C(C#N)=C(\N)Sc1ccccc1N [U0126]
up regulated cytokines and chemokines ([4]; plasma of U0126-treated KO mice): reversed

Cn1c2ccccc2c2c3c(c4c5ccccc5n(CCC#N)c4c21)CNC3=O [Go6976]
IC50 [5]: 7.9 nM

COc1cc2ncnc(Nc3ccc(O)c(Br)c3)c2cc1OC [WHI-P154]
activity against JAK2 [6]: no activity
activity against JAK1 [3]: no activity

C[C@@H]1CCN(C(=O)CC#N)C[C@@H]1N(C)c1ncnc2[nH]ccc12 [Tofacitinib]
CLEC16A knockout inflammatory phenotype (cytokines/chemokine levels) ([4]; plasma, KO+Tofacitinib treated mice, FIG. 11): attenuated
lipodystrophic (inflammatory) phenotype [7]: partially rescues
fat and weight loss ([7]; Tofacitinib treatment): significantly rescued
survival ([7]; Tofacitinib treatment): improves
autophagy/lipophagy defect ([8]; gWAT immunoblot (P62), CLEC16A KO mice): rescues
SOCS1 expression [8, 19]: significantly reversed
p-STAT1 and p-STAT3 [8, 19]: downregulating the p-STAT1 and p-STAT3 to normal levels comparable to control
phosphorylation of ACC [8, 19]: promoted
phosphorylation of mTOR [8, 19]: reversal
upregulated p-AMPK [8, 19]: significantly reduced
phospho-HSL (p-HSL) ([8]; gWAT immunoblot, CLEC16A KO+Tofacitinib mice): significant reversal

CCS(=O)(=O)N1CCN(c2ccc(Nc3ncc(C(N)=O)c(NC4CC4)n3)cc2)CC1 [Cerdulatinib]
IC50 [9]: < 200 nM

CN1CCN(c2cccc(Nc3nc4c(-c5ccc(S(C)(=O)=O)cc5)cccn4n3)c2)CC1 [CEP33779]
IC50 [6]: 1.8 nM
selectivity for JAK2 versus TYK2 [2]: > 800 fold
selectivity for JAK2 versus JAK1 [3]: > 40 fold

Cc1cc(Nc2nc(N[C@@H](C)c3ccc(F)cc3)c(C#N)cc2F)n[nH]1 [AZ 960]
IC50 [6]: < 3 nM
selectivity for JAK2 versus JAK3 [1]: 3 fold

COc1ccc(-c2ccc3c(N4CCOCC4)nc(N4C[C@@H](C)O[C@@H](C)C4)nc3n2)cc1CO [KU-0063794]
effect on PI3Ks [10]: no effect

C[C@H](NC(=O)/C(C#N)=C/c1cccc(Br)n1)c1ccccc1 [WP1066]
IC50 [11]: 2430 nM

CO[C@H]1C[C@@H]2CC[C@@H](C)[C@@](O)(O2)C(=O)C(=O)N2CCCC[C@H]2C(=O)O[C@H]([C@H](C)C[C@@H]2CC[C@@H](OP(C)(C)=O)[C@H](OC)C2)CC(=O)[C@H](C)/C=C(\C)[C@@H](O)[C@@H](OC)C(=O)[C@H](C)C[C@H](C)/C=C/C=C/C=C/1C [Ridaforolimus]
IC50 [12]: 0.2 nM

Cc1cnc(Nc2ccc(N3CCN(C)CC3)cc2)nc1Nc1cccc(S(=O)(=O)NC(C)(C)C)c1 [TG101209]
IC50 [13]: 25 nM
IC50 [14]: 17 nM

CNC(=O)c1cccc(-c2ccc3c(N4CCOC[C@@H]4C)nc(N4CCOC[C@@H]4C)nc3n2)c1 [Vistusertib]
binding to the majority of kinases [15]: no or weak binding

CNS(=O)(=O)C[C@H]1CC[C@H](N(C)c2ncnc3[nH]ccc23)CC1 [Oclacitinib]
inhibition of a panel of 38 non-JAK kinases [16]: does not inhibit

N#Cc1ccc(COc2ccc(-c3cccc4nc(NC(=O)C5CC5)nn34)cc2)cn1 [GLPG0634 analogue]
IC50 [6]: 28 nM
IC50 [1]: 810 nM
IC50 [2]: 116 nM
IC50 [3]: 10 nM

COc1ccc(-c2cc3c(C)nc(N)nc3n([C@H]3CC[C@H](OCCO)CC3)c2=O)cn1 [PF-04691502]
activity against Vps34, AKT, PDK1, p70S6K, MEK, ERK, p38, or JNK [17]: little activity

CO[C@H]1C[C@@H]2CC[C@@H](C)[C@@](O)(O2)C(=O)C(=O)N2CCCC[C@H]2C(=O)O[C@H]([C@H](C)C[C@@H]2CC[C@@H](OCCO)[C@H](OC)C2)CC(=O)[C@H](C)/C=C(\C)[C@@H](O)[C@@H](OC)C(=O)[C@H](C)C[C@H](C)/C=C/C=C/C=C/1C [Everolimus]
IC50 [18]: 1.6 to 2.4 nM

CC(C)N(CCC(=O)c1ccc2ccccc2c1)Cc1ccccc1 [ZM 39923 HCl]
activity against JAK2 [6]: almost no activity
